Source: patent publication US8785452B2, “Anti-infective compounds” (priority 2008, dated 2014)

Tested on: Raw264.7 cells
Test: not given
Details: mouse

SMILES	Primary QIM CellNb
CCOc1ccc(/C(C)=N/NC(N)=S)cc1 [IPK 000 080 37]	62.1

Same assay, conditions: mouse, 5 days, 0.2 uM

SMILES	QIM Confirm CellNb 0.2 uM
Cc1ccccc1NC(=O)c1c(NC(=O)c2ccccc2Cl)sc2c1CCC2 [IPK 000 073 71]	45.3

Same assay, conditions: mouse, 5 days, 2 uM

SMILES	QIM Confirm CellNb 2 uM
CCCCN(CCCC)C(=O)c1ccc(C(C)(C)C)cc1 [IPK 000 067 60]	99.7

Same assay, conditions: mouse, 5 days, 20 μM

SMILES	Primary QIM CellNb
O=[N+]([O-])c1ccc(O)c(C2NN=C(c3ccccc3)S2)c1 (stereo not drawn) [IPK 000 114 01]	7.3
COc1cc(/C=N/NC(=O)c2ccncc2)ccc1O [IPK 000 042 97]	99.2
COc1cc(Cl)cc(/C=N/NC(=O)c2ccccc2O)c1O [IPK 000 104 20]	−2.9
CCc1ccc(/C=C(/C#N)C(=O)OC(C)C)s1 [IPK 000 107 90]	52.8
O=C(N/N=C/c1cc(Br)cc([N+](=O)[O-])c1O)c1ccncc1 [IPK 000 080 81]	104.9
C=C(N/N=C/c1cccc(C)n1)c1nn(Cc2ccc(Br)cc2)cc1Br [IPK 000 091 17]	35.4
CCOc1ccc(NC(=S)Nc2ccccc2)cc1 [IPK 000 108 78]	38.3
O=C(N/N=C/c1cc([N+](=O)[O-])ccc1O)c1ccncc1 [IPK 000 042 98]	95.3
CCOc1cc(/C=N/NC(=O)c2ccncc2)ccc1O [IPK 000 042 99]	104.1
Cc1ccc(NC(=O)c2ccc([N+](=O)[O-])cc2Cl)cc1C [IPK 000 047 15]	61.1
O=C(Nc1cccnc1)c1ccc(COc2ccc3ccccc3c2)o1 [IPK 000 124 43]	26.2
O=C(COc1ccccc1-c1ccccc1)N/N=C\c1ccc([N+](=O)[O-])s1 [IPK 000 103 28]	49.5
Cn1cc(/C=N/NC(=O)c2cccc(F)c2)c2ccccc21 [IPK 000 104 11]	19.9
CC(/C=N/NC(=O)c1ccccn1)=C\c1ccco1 [IPK 000 110 79]	22.8
Cc1nc2c(o1)NC(N)=C(C#N)C2c1c[nH]nc1C (stereo not drawn) [IPK 000 065 03]	1.1
Cc1ccccc1NC(=O)c1c(NC(=O)c2ccccc2Cl)sc2c1CCC2 [IPK 000 073 71]	29.8
CCCCN(CCCC)C(=O)c1ccc(C(C)(C)C)cc1 [IPK 000 067 60]	25.8

Tested on: Raw264.7 cells
Test: Cell number (CellNb) from image analysis of the phenotypic cell-based assay
Details: not given

SMILES	Primary QIM CellNb
CCOc1ccc(/C(C)=N/NC(N)=S)cc1 [IPK 000 080 37]	110.8

Same assay, conditions: confirmation, 2 uM

SMILES	QIM Confirm CellNb 2 uM
CCCCN(CCCC)C(=O)c1ccc(C(C)(C)C)cc1 [IPK 000 067 60]	179.1

Same assay, conditions: primary screen, 20 μM

SMILES	Primary QIM CellNb
O=[N+]([O-])c1ccc(O)c(C2NN=C(c3ccccc3)S2)c1 (stereo not drawn) [IPK 000 114 01]	163.5
COc1cc(/C=N/NC(=O)c2ccncc2)ccc1O [IPK 000 042 97]	307.8
COc1cc(Cl)cc(/C=N/NC(=O)c2ccccc2O)c1O [IPK 000 104 20]	29.5
CCc1ccc(/C=C(/C#N)C(=O)OC(C)C)s1 [IPK 000 107 90]	494.3
O=C(N/N=C/c1cc(Br)cc([N+](=O)[O-])c1O)c1ccncc1 [IPK 000 080 81]	363.3
C=C(N/N=C/c1cccc(C)n1)c1nn(Cc2ccc(Br)cc2)cc1Br [IPK 000 091 17]	191.5
CCOc1ccc(NC(=S)Nc2ccccc2)cc1 [IPK 000 108 78]	200.3
O=C(N/N=C/c1cc([N+](=O)[O-])ccc1O)c1ccncc1 [IPK 000 042 98]	350.0
CCOc1cc(/C=N/NC(=O)c2ccncc2)ccc1O [IPK 000 042 99]	364.0
Cc1ccc(NC(=O)c2ccc([N+](=O)[O-])cc2Cl)cc1C [IPK 000 047 15]	281.8
O=C(Nc1cccnc1)c1ccc(COc2ccc3ccccc3c2)o1 [IPK 000 124 43]	168.3
O=C(COc1ccccc1-c1ccccc1)N/N=C\c1ccc([N+](=O)[O-])s1 [IPK 000 103 28]	134.3
Cn1cc(/C=N/NC(=O)c2cccc(F)c2)c2ccccc21 [IPK 000 104 11]	203.8
CC(/C=N/NC(=O)c1ccccn1)=C\c1ccco1 [IPK 000 110 79]	462.3
Cc1nc2c(o1)NC(N)=C(C#N)C2c1c[nH]nc1C (stereo not drawn) [IPK 000 065 03]	197.8
Cc1ccccc1NC(=O)c1c(NC(=O)c2ccccc2Cl)sc2c1CCC2 [IPK 000 073 71]	218.3
CCCCN(CCCC)C(=O)c1ccc(C(C)(C)C)cc1 [IPK 000 067 60]	164.3

Tested on: M. tuberculosis H37Rv-GFP
Test: microbe, parasite or virus in culture
Assay type: cell-based, Mycobacterium tuberculosis
Details: Mycobacterium tuberculosis, H37RV, Macrophage, read-out: Primary QIM % Inhibition

SMILES	inhibition at 20 µM
CCOc1ccc(/C(C)=N/NC(N)=S)cc1 [IPK 000 080 37]	-44%

Same assay, conditions: Mycobacterium tuberculosis, H37RV, Macrophage, read-out: QIM Confirm % Inhibition 20 uM

SMILES	inhibition at 20 µM
CCOc1ccc(/C(C)=N/NC(N)=S)cc1 [IPK 000 080 37]	36%

Same assay, conditions: Mycobacterium tuberculosis, H37RV, Macrophage; confirmation, 20 uM; read-out: QIM Confirm % Inhibition 20 uM

SMILES	inhibition at 20 µM
O=[N+]([O-])c1ccc(O)c(C2NN=C(c3ccccc3)S2)c1 (stereo not drawn) [IPK 000 114 01]	-1.5%
COc1cc(/C=N/NC(=O)c2ccncc2)ccc1O [IPK 000 042 97]	103%
COc1cc(Cl)cc(/C=N/NC(=O)c2ccccc2O)c1O [IPK 000 104 20]	34.6%
CCc1ccc(/C=C(/C#N)C(=O)OC(C)C)s1 [IPK 000 107 90]	89.6%
O=C(N/N=C/c1cc(Br)cc([N+](=O)[O-])c1O)c1ccncc1 [IPK 000 080 81]	99.5%
C=C(N/N=C/c1cccc(C)n1)c1nn(Cc2ccc(Br)cc2)cc1Br [IPK 000 091 17]	75.7%
CCOc1ccc(NC(=S)Nc2ccccc2)cc1 [IPK 000 108 78]	68.8%
O=C(N/N=C/c1cc([N+](=O)[O-])ccc1O)c1ccncc1 [IPK 000 042 98]	105%
CCOc1cc(/C=N/NC(=O)c2ccncc2)ccc1O [IPK 000 042 99]	106%
Cc1ccc(NC(=O)c2ccc([N+](=O)[O-])cc2Cl)cc1C [IPK 000 047 15]	85.8%
O=C(Nc1cccnc1)c1ccc(COc2ccc3ccccc3c2)o1 [IPK 000 124 43]	64.7%
O=C(COc1ccccc1-c1ccccc1)N/N=C\c1ccc([N+](=O)[O-])s1 [IPK 000 103 28]	71.3%
Cn1cc(/C=N/NC(=O)c2cccc(F)c2)c2ccccc21 [IPK 000 104 11]	83.3%
CC(/C=N/NC(=O)c1ccccn1)=C\c1ccco1 [IPK 000 110 79]	83.4%
Cc1nc2c(o1)NC(N)=C(C#N)C2c1c[nH]nc1C (stereo not drawn) [IPK 000 065 03]	73.2%
Cc1ccccc1NC(=O)c1c(NC(=O)c2ccccc2Cl)sc2c1CCC2 [IPK 000 073 71]	65.2%
CCCCN(CCCC)C(=O)c1ccc(C(C)(C)C)cc1 [IPK 000 067 60]	46.6%

Same assay, conditions: Mycobacterium tuberculosis, H37RV, Macrophage; primary screen, 20 μM; read-out: Primary QIM % Inhibition

SMILES	inhibition at 20 µM
O=[N+]([O-])c1ccc(O)c(C2NN=C(c3ccccc3)S2)c1 (stereo not drawn) [IPK 000 114 01]	3.2%
COc1cc(/C=N/NC(=O)c2ccncc2)ccc1O [IPK 000 042 97]	99.7%
COc1cc(Cl)cc(/C=N/NC(=O)c2ccccc2O)c1O [IPK 000 104 20]	65.2%
CCc1ccc(/C=C(/C#N)C(=O)OC(C)C)s1 [IPK 000 107 90]	79.3%
O=C(N/N=C/c1cc(Br)cc([N+](=O)[O-])c1O)c1ccncc1 [IPK 000 080 81]	94.7%
C=C(N/N=C/c1cccc(C)n1)c1nn(Cc2ccc(Br)cc2)cc1Br [IPK 000 091 17]	75.6%
CCOc1ccc(NC(=S)Nc2ccccc2)cc1 [IPK 000 108 78]	78.8%
O=C(N/N=C/c1cc([N+](=O)[O-])ccc1O)c1ccncc1 [IPK 000 042 98]	102%
CCOc1cc(/C=N/NC(=O)c2ccncc2)ccc1O [IPK 000 042 99]	103%
Cc1ccc(NC(=O)c2ccc([N+](=O)[O-])cc2Cl)cc1C [IPK 000 047 15]	69.7%
O=C(Nc1cccnc1)c1ccc(COc2ccc3ccccc3c2)o1 [IPK 000 124 43]	35.6%
O=C(COc1ccccc1-c1ccccc1)N/N=C\c1ccc([N+](=O)[O-])s1 [IPK 000 103 28]	71.1%
Cn1cc(/C=N/NC(=O)c2cccc(F)c2)c2ccccc21 [IPK 000 104 11]	89.7%
CC(/C=N/NC(=O)c1ccccn1)=C\c1ccco1 [IPK 000 110 79]	72.9%
Cc1nc2c(o1)NC(N)=C(C#N)C2c1c[nH]nc1C (stereo not drawn) [IPK 000 065 03]	68.2%
Cc1ccccc1NC(=O)c1c(NC(=O)c2ccccc2Cl)sc2c1CCC2 [IPK 000 073 71]	87.5%
CCCCN(CCCC)C(=O)c1ccc(C(C)(C)C)cc1 [IPK 000 067 60]	63.4%
